What all share (test): inhibition of tumour cell growth, NCI panel, 48 h
Assay [1] concerns UACC-62 melanoma.
Assay [2] relates to OVCAR-3 ovarian.
Assay [3] relates to TK-10 renal.
Assay [4] deals with OVCAR-4 ovarian.
Assay [5] has as its system SN12C renal.
In assay [6] the test system is HCC-2998 colon.
In assay [7] the test system is NCI-H522 lung.
Assay [8] has as its system MDA-MB-231 breast.
The subject of assay [9] is MALME-3M melanoma.
Assay [10] relates to DU-145 prostate.

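Tested at 5 concentrations; 48 h exposure; 96-well plates; endpoints linearly interpolated, else capped at highest concentration. Abbreviation: GI50, concentration required for 50% inhibition of growth. Definition used: TGI = concentration required for complete inhibition of growth.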

Regarding `O=C([CH-]C(=O)c1ccccc1)c1ccccc1.O=C([CH-]C(=O)c1ccccc1)c1ccccc1.[O]=[U+2]=[O]`, the GI50 is 2.43 µM in assay [1]; 1.81 µM in assay [2]; 4.8 µM in assay [3]; 2.42 µM in assay [4]; 3.33 µM in assay [5]. For the same compound, the TGI in assay [1] stood at 6.91 µM; in assay [2], 4.79 µM; in assay [3], 26.6 µM; in assay [4], 14 µM; in assay [5], 18.7 µM.
Take `O=[N+]([O-])c1ccc(C2=Nc3ccccc3SC(c3ccccc3)C2)cc1` (stereo unspecified): the TGI was 29 µM in assay [6]; 27.3 µM in [1]; greater than 100 µM in assay [3]; 27.3 µM in [4]; 26.7 µM in assay [7]; 32.2 µM in [5].
Turning to `CCOC(=O)C1CN(C2CC2)CCC1=O` (stereo unspecified), the TGI in assay [6], in [1], in [8], in assay [2], in [3] and in assay [9] was greater than 100 µM in each case. Moreover, the TGI in assay [4], in assay [5] and in assay [10] was greater than 100 µM each time.
Consider `O=C(O)CC(NC(=O)/C(=C/c1ccccc1O)NC(=O)c1ccccc1)C(=O)O` (stereo unspecified), for which the TGI in assay [6], in assay [1], in assay [8], in assay [2], in assay [3] and in assay [9] was greater than 100 µM each time. The TGI in assay [4], in [7] and in assay [5] was greater than 100 µM each time.
Take `CCCCC#CS(=O)(=O)C(F)(F)F`: the TGI in assay [6] was greater than 31.6 µM; in [1] it was 99.6 µM; in [2], greater than 100 µM; in assay [9], greater than 100 µM; in assay [4] it was 98.9 µM; in assay [7] it was greater than 100 µM. Also, the TGI in [5] was greater than 100 µM.
With `CC1=CC(=O)CC2(C)CCC(C(C)CC(=O)CC(C)C)CC12` (stereo unspecified), the TGI is 59.1 µM in [1]; greater than 100 µM in assay [8]; greater than 100 µM in [3]; 62.4 µM in [9]; greater than 100 µM in assay [4]; 30.8 µM in [7]. The TGI in [5] was 32.6 µM; in assay [10], greater than 100 µM.
Take `CC(C)(C)OC(=O)n1c(-c2ccccc2F)cc(=O)c2cc3c(cc21)OCO3`: the TGI in assay [6] was greater than 32.3 µM; in [1] it was greater than 100 µM; in [2] it was greater than 100 µM; in assay [3], greater than 100 µM; in [9], greater than 100 µM; in assay [4] it was greater than 100 µM. In addition, the TGI in assay [10] is greater than 100 µM.
As for `O=C1CS(=O)C23c4cc5ccccc5n4CCC2CCCN13` (stereo unspecified), the TGI in assay [1], in assay [8], in assay [2], in assay [3], in assay [9] and in [4] was greater than 100 µM each time. For the same compound, the TGI in assay [7], in assay [5] and in assay [10] was greater than 100 µM throughout.
For the compound `C[C@]12CC[C@H](O)C=C1CC[C@@H]1[C@@H]2CC[C@]2(C)C(c3ccc(=O)oc3)CC[C@]12O` (stereo partly specified), the TGI is 0.208 µM in assay [6]; 0.0378 µM in assay [1]; 0.018 µM in assay [2]; 0.014 µM in assay [9]; 0.0356 µM in [4]; 0.0155 µM in assay [7]. The same compound registered a TGI in assay [5] of 0.0773 µM.
For `CC1(C)[C@@H](Cn2cnc3c(Cl)nc(N)nc32)CC[C@@]1(C)CO`, the TGI was 48.7 µM in assay [6]; 38 µM in [1]; greater than 100 µM in assay [8]; greater than 100 µM in [2]; greater than 100 µM in assay [3]; greater than 100 µM in [4]. Moreover, the TGI in assay [5] and in assay [10] was greater than 100 µM throughout.
For the compound `COc1cc(C=C2C(=O)NC(=S)NC2=O)cc(OC)c1OC`, the TGI in assay [6], in assay [1], in assay [8], in assay [2], in assay [3] and in assay [9] was greater than 100 µM throughout. The TGI in [4], in assay [5] and in [10] was greater than 100 µM each time.
Regarding `CN(C)P(=O)(Oc1occc1C(O)Cc1ccccc1)N(C)C` (stereo unspecified), the TGI in assay [6], in [8], in assay [2], in assay [3], in assay [9] and in [4] was greater than 100 µM throughout. The TGI in assay [7] and in assay [5] was greater than 100 µM each time.
Consider `c1csc(-c2c3ccc(=[N+]4CCCCC4)cc-3oc3cc(N4CCCCC4)ccc23)c1`, for which the GI50 in assay [6] is 0.0391 µM; in assay [1], 0.159 µM; in [3] it was 0.15 µM; in assay [9], 0.027 µM; in assay [10], 0.0578 µM. Also, the TGI in assay [6] amounted to 0.14 µM; in [1], 0.356 µM; in assay [3], 0.34 µM; in assay [9], 0.0822 µM; in assay [10] it was 0.201 µM.
With `Cc1ccc(-c2c(C#N)c(-c3ccc([N+](=O)[O-])cc3)c(C#N)c(=O)n2NS(=O)(=O)c2ccccc2)cc1`, the TGI was greater than 100 µM in [6]; 64 µM in assay [1]; greater than 100 µM in assay [8]; greater than 100 µM in [3]; greater than 100 µM in assay [9]; greater than 100 µM in assay [4]. In addition, the TGI in assay [7] and in [5] was greater than 100 µM each time.
As to `C[C@]1(S(=O)(=O)c2ccccc2)C[C@H]2N(Cc3ccccc3)[C@@H]1CCC21OCCO1`, the TGI in [1], in [8], in assay [2], in assay [9], in assay [4] and in assay [7] was greater than 100 µM in each case. In addition, the TGI in [5] and in assay [10] was greater than 100 µM in each case.
In the case of `CN1COCc2cc3cc4c(cc3nc21)OCCO4`, the TGI in assay [6], in [1], in [8], in assay [3], in assay [9] and in assay [4] was greater than 100 µM throughout. For the same compound, the TGI in assay [7] and in assay [5] was greater than 100 µM throughout.

(Values after PubChem BioAssay (NCI).)
